The source of these data is patent US20240150377A1, “MODULATORS OF CYSTIC FIBROSIS TRANSMEMBRANE CONDUCTANCE REGULATOR” (VERTEX PHARMACEUTICALS INCORPORATED, priority 2020, published 2024).

This experiment addresses CFTR (Homo sapiens, UniProt P13569). In words: Membrane potential dye, Enteroid Assay A. In kind it is cell-based. The note with it: for Ent. A Max Activity: chloride transport as % of triple combination control (Enteroid Assay A); for EC50: human enteroid cells, 18-24 hours, acute 10 μM forskolin and 300 nM ivacaftor, read-out: Ent. A EC50. An outline of the steps:
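Human intestinal enteroids incubated 18-24 h at 37 °C with test compound, then loaded with 20 μM methyl oxonol (with CaCC inhibitors). Chloride transport triggered in chloride-free buffer with 10 μM forskolin, 100 μM IBMX, 300 nM Compound III; fluorescence read 15 min, expressed as % of a triple-combination corrector/potentiator control.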

Where two headings read alike, the source gives them in different places.

Sequence of CFTR (P13569 with tags, fused parts or gaps DEL508-508): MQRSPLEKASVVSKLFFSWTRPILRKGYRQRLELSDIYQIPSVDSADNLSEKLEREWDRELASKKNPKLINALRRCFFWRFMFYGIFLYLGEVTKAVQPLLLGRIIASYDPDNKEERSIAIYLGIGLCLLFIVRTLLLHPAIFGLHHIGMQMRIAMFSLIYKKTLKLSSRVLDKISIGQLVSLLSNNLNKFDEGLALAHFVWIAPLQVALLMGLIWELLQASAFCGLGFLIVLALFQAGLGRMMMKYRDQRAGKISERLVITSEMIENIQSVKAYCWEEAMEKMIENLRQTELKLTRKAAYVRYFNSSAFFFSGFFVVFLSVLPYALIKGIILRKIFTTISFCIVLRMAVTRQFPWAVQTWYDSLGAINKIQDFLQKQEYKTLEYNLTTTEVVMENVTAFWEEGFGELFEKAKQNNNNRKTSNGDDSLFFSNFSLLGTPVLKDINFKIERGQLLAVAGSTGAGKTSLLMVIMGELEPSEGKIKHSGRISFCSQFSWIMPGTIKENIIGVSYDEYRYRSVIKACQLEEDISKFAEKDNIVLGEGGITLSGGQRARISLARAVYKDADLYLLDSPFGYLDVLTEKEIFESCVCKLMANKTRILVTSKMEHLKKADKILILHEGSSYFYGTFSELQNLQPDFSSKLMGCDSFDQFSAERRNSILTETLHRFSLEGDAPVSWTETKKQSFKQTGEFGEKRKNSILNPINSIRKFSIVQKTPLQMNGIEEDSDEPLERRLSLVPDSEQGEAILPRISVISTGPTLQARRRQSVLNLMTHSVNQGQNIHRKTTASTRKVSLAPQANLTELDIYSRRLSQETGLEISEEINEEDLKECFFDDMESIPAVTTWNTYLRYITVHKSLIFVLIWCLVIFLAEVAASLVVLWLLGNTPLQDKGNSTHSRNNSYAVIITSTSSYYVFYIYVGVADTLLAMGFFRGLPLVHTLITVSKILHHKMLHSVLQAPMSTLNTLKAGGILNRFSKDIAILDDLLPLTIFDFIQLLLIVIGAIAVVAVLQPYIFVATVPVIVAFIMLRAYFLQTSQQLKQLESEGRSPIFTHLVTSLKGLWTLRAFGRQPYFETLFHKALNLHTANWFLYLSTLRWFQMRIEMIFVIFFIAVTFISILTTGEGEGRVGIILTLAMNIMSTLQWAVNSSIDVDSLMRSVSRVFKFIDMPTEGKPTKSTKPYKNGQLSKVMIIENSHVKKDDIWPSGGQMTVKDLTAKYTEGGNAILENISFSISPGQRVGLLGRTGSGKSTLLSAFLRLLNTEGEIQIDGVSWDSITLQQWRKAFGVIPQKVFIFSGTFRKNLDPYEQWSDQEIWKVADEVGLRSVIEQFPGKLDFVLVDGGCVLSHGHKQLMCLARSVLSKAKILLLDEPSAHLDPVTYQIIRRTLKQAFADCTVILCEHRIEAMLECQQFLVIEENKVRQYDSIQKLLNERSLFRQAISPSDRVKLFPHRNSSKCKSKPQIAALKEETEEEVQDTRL

Regarding `Cc1cccc(C)c1-c1cc2nc(n1)NS(=O)(=O)c1cccc(c1)C(=O)N(CC(C)C)C[C@H](c1ccccc1)O2` [Compound 864], under “Table 6”, the “Ent. A Max Activity” value is reported as “++ (++ is 30-60%)” and the EC50 is less than 1 µM.
As for `Cc1cccc(C)c1-c1cc2nc(n1)NS(=O)(=O)c1cccc(c1)CN(CCn1c(=O)oc3ccccc31)[C@H](CC(C)C)CO2` [Compound 1039], for the setting “Table 7”, the “Ent. A Max Activity” value is recorded as “++ (++ is 30-60%)” and the EC50 was less than 1 µM.
With `Cc1cccc(C)c1-c1cc2nc(n1)NS(=O)(=O)c1cccc(c1)C(=O)N(CC1CC1)[C@H](CC(C)C)CO2` [Compound 366], under “Table 6”, the “Ent. A Max Activity” value was “+++ (+++ is >60%)” and the EC50 is less than 1 µM.
Turning to `Cc1cccc(C)c1-c1cc2nc(n1)NS(=O)(=O)c1cccc(c1)C(=O)N(Cc1ccccc1)CCO2` [Compound 978], for the setting “Table 6”, the “Ent. A Max Activity” value was “+++ (+++ is >60%)” and the EC50 was less than 1 µM.
`Cc1cccc(C)c1-c1cc2nc(n1)NS(=O)(=O)c1cccc(c1)CN(Cc1ccccc1OCc1ccccc1)[C@H](CC(C)C)CO2` [Compound 1037]: for the setting “Table 7”, the “Ent. A Max Activity” value is listed as “++ (++ is 30-60%)” and the EC50 is less than 1 µM.
Turning to `Cc1cccc(C)c1-c1cc2nc(n1)NS(=O)(=O)c1cccc(c1)C(=O)N(Cc1ccc(N3CCC(C)(C)CC3)nc1)[C@H](CC(C)C)CO2` [Compound 940], for the setting “Table 7”, the “Ent. A Max Activity” value is “+++ (+++ is >60%)” and the EC50 is less than 1 µM.
Regarding `Cc1cccc(C)c1-c1cc2nc(n1)NS(=O)(=O)c1cccc(c1)C(=O)N(Cc1ccc(N3CCCC(C)C3)nc1)[C@H](CC(C)C)CO2` (stereo partly drawn) [Compound 964], under “Table 7”, the “Ent. A Max Activity” value was “+++ (+++ is >60%)” and the EC50 was less than 1 µM.
On to `Cc1cccc(C)c1-c1cc2nc(n1)NS(=O)(=O)c1cccc(c1)C(=O)N(Cc1ccccc1C#N)[C@H](CC(C)C)CO2` [Compound 861], for which, under “Table 6”, the “Ent. A Max Activity” value was “++ (++ is 30-60%)” and the EC50 was 1 to 3 µM.
In the same order, the values of `Cc1cccc(C)c1-c1cc2nc(n1)NS(=O)(=O)c1cccc(c1)C(=O)N(C)CC(c1ccc(C#N)cc1)O2` (stereo not drawn) [Compound 667] are “++ (++ is 30-60%)” and 1 to 3 µM.
Turning to `Cc1cccc(C)c1-c1cc2nc(n1)NS(=O)(=O)c1cccc(c1)C(=O)N(Cc1ccc(N3CCC4(CC3)COC4)nc1)[C@H](CC(C)C)CO2` [Compound 965], where the note is “Table 7”, the “Ent. A Max Activity” value is “+++ (+++ is >60%)” and the EC50 was less than 1 µM.
Consider `CCCC(=O)N1Cc2cccc(c2)S(=O)(=O)Nc2nc(cc(-c3c(C)cccc3C)n2)OC[C@H]1CC(C)C` [Compound 1052], for which the “Ent. A Max Activity” value (Table 7) is listed as “++ (++ is 30-60%)”.
Take `Cc1cccc(C)c1-c1cc2nc(n1)NS(=O)(=O)c1cccc(c1)C(=O)N(CC1CCN(C)CC1)[C@H](CC(C)C)CO2` [Compound 360]: where the note is “Table 6”, the “Ent. A Max Activity” value was “+++ (+++ is >60%)” and the EC50 was 1 to 3 µM.
For the compound `Cc1cccc(C)c1-c1cc2nc(n1)NS(=O)(=O)c1cccc(c1)C(=O)N(Cc1ccn(C)n1)[C@H](CC(C)C)CO2` [Compound 855], where the note is “Table 6”, the “Ent. A Max Activity” value was “+++ (+++ is >60%)” and the EC50 is less than 1 µM.
For `Cc1cccc(C)c1-c1cc2nc(n1)NS(=O)(=O)c1cccc(c1)C(=O)N(CCC(C)(C)C)[C@H](CC(F)(F)F)CO2` [Compound 984], for the setting “Table 7”, the “Ent. A Max Activity” value is “++ (++ is 30-60%)” and the EC50 was in the range of 1 to 3 µM.
As for `COc1ccnc(CN2C(=O)c3cccc(c3)S(=O)(=O)Nc3nc(cc(-c4c(C)cccc4C)n3)OC[C@H]2CC(C)C)c1` [Compound 82, (11R)-6-(2,6-Dimethylphenyl)-11-isobutyl-12-[(4-methoxy-2-pyridyl)methyl]-2,2-dioxo-9-oxa-2λ^6-thia-3,5,12,19-tetrazatricyclo[12.3.1.14,8]nonadeca-1(18),4(19),5,7,14,16-hexaen-13-one], where the note is “Table 6”, the “Ent. A Max Activity” value is on record as “+++ (+++ is >60%)” and the EC50 is less than 1 µM.
`Cc1cccc(C)c1-c1cc2nc(n1)NS(=O)(=O)c1cccc(c1)C(=O)N(CCC1CCOCC1)[C@H](CC(F)(F)F)CO2` [Compound 982]: where the note is “Table 7”, the “Ent. A Max Activity” value is recorded as “++ (++ is 30-60%)” and the 50% effective concentration (EC50) lay in the range of 1 to 3 µM.
For `Cc1cccc(C)c1-c1cc2nc(n1)NS(=O)(=O)c1cccc(c1)C(=O)N(C)CC(c1ccc(C(N)=O)cc1)O2` (stereo not drawn) [Compound 666], the “Ent. A Max Activity” value (Table 6) is “+ (+ is <30%)”.
As to `Cc1cccc(C)c1-c1cc2nc(n1)NS(=O)(=O)c1cccc(c1)C(=O)N(Cc1ccc(N3CC[C@@H](C)C3)nc1)[C@H](CC(C)C)CO2` [Compound 958], under “Table 7”, the “Ent. A Max Activity” value is “+++ (+++ is >60%)” and the EC50 was less than 1 µM.
For `Cc1cccc(C)c1-c1cc2nc(n1)NS(=O)(=O)c1cccc(c1)C(=O)N(Cc1ccc(N3CCC(C(F)(F)F)CC3)nc1)[C@H](CC(C)C)CO2` [Compound 969] the same measures were “++ (++ is 30-60%)” and less than 1 µM.
In the same order, the values of `Cc1cccc(C)c1-c1cc2nc(n1)NS(=O)(=O)c1cccc(c1)C(=O)N(C)C(c1ccc(C(C)(C)C)cc1)CO2` (stereo not drawn) [Compound 13, 11-(4-tert-butylphenyl)-6-(2,6-dimethylphenyl)-12-methyl-2,2-dioxo-9-oxa-2λ^6-thia-3,5,12,19-tetrazatricyclo[12.3.1.14,8]nonadeca-1(18),4(19),5,7,14,16-hexaen-13-one] are “++ (++ is 30-60%)” and less than 1 µM.
With `Cc1cccc(C)c1-c1cc2nc(n1)NS(=O)(=O)c1cccc(c1)C(=O)N(CCC1CCOCC1)[C@H](CC1(C(F)(F)F)CC1)CO2` [Compound 680], where the note is “Table 7”, the “Ent. A Max Activity” value is “+ (+ is <30%)” and the EC50 is less than 1 µM.
`Cc1cccc(C)c1-c1cc2nc(n1)NS(=O)(=O)c1cccc(c1)C(=O)N(C)CC(c1ccc(C3=CCOCC3)cc1)O2` (stereo not drawn) [Compound 675]: under “Table 6”, the “Ent. A Max Activity” value is on record as “++ (++ is 30-60%)” and the EC50 was less than 1 µM.
Regarding `CCc1nccc(CN2Cc3cccc(c3)S(=O)(=O)Nc3nc(cc(-c4c(C)cccc4C)n3)OC[C@H]2CC(C)C)n1` [Compound 1035], for the setting “Table 7”, the “Ent. A Max Activity” value was “++ (++ is 30-60%)” and the EC50 was less than 1 µM.
For `Cc1cccc(C)c1-c1cc2nc(n1)NS(=O)(=O)c1cccc(c1)C(=O)N(Cc1ccc(N3CCC[C@@H]3C)nc1)[C@H](CC(C)C)CO2` [Compound 960] the same measures were “+++ (+++ is >60%)” and less than 1 µM.
For `Cc1cccc(C)c1-c1cc2nc(n1)NS(=O)(=O)c1cccc(c1)C(=O)N(CC1CC13CCOCC3)[C@H](CC(C)C)CO2` (stereo partly drawn) [Compound 416] the same measures were “+++ (+++ is >60%)” and less than 1 µM.
Turning to `CNC(=O)c1ccc(CN2C(=O)c3cccc(c3)S(=O)(=O)Nc3nc(cc(-c4c(C)cccc4C)n3)OC[C@H]2CC(C)C)cn1` [Compound 93, 5-{[(11R)-6-(2,6-dimethylphenyl)-11-(2-methylpropyl)-2,2,13-trioxo-9-oxa-2λ^6-thia-3,5,12,19-tetraazatricyclo[12.3.1.14,8]nonadeca-1(18),4(19),5,7,14,16-hexaen-12-yl]methyl}-N-methylpyridine-2-carboxamide], under “Table 7”, the “Ent. A Max Activity” value is listed as “+++ (+++ is >60%)” and the EC50 is less than 1 µM.
In the same order, the values of `Cc1cccc(C)c1-c1cc2nc(n1)NS(=O)(=O)c1cccc(c1)C(=O)N(Cc1ccc(N3CCCC3)nc1)[C@H](CC(C)C)CO2` [Compound 961] are “+++ (+++ is >60%)” and less than 1 µM.
In the same order, the values of `CCOc1cc(CN2Cc3cccc(c3)S(=O)(=O)Nc3nc(cc(-c4c(C)cccc4C)n3)OC[C@H]2CC(C)C)ccc1OC` [Compound 1038] are “++ (++ is 30-60%)” and less than 1 µM.
For `Cc1cccc(C)c1-c1cc2nc(n1)NS(=O)(=O)c1cccc(c1)C(=O)N(Cc1ccc(N3CCC(CO)CC3)nc1)[C@H](CC(C)C)CO2` [Compound 956] the same measures were “+++ (+++ is >60%)” and less than 1 µM.
On to `COC1CCC(CC(=O)N2Cc3cccc(c3)S(=O)(=O)Nc3nc(cc(-c4c(C)cccc4C)n3)OC[C@H]2CC(C)C)CC1` (stereo partly drawn) [Compound 1045], for which the “Ent. A Max Activity” value (Table 7) is reported as “+ (+ is <30%)”.
Turning to `Cc1cccc(C)c1-c1cc2nc(n1)NS(=O)(=O)c1cccc(c1)C(=O)N(Cc1cccnc1)[C@H](CC(C)C)CO2` [Compound 364], where the note is “Table 6”, the “Ent. A Max Activity” value is given as “+++ (+++ is >60%)” and the EC50 was less than 1 µM.
`Cc1cccc(C)c1-c1cc2nc(n1)NS(=O)(=O)c1cccc(c1)CN(CCc1ccccc1)[C@H](CC(C)C)CO2` [Compound 1040]: where the note is “Table 7”, the “Ent. A Max Activity” value is “++ (++ is 30-60%)” and the EC50 was less than 1 µM.
Consider `Cc1cccc(C)c1-c1cc2nc(n1)NS(=O)(=O)c1cccc(c1)C(=O)N(Cc1ccc(C3CCN(C)CC3)cc1)[C@H](CC(C)C)CO2` [Compound 87, (11R)-6-(2,6-Dimethylphenyl)-11-isobutyl-12-[[4-(1-methyl-4-piperidyl)phenyl]methyl]-2,2-dioxo-9-oxa-2λ^6-thia-3,5,12,19-tetrazatricyclo[12.3.1.14,8]nonadeca-1(18),4(19),5,7,14,16-hexaen-13-one], for which, for the setting “Table 6”, the “Ent. A Max Activity” value was “+++ (+++ is >60%)” and the EC50 was less than 1 µM.
For `Cc1ccccc1-c1cc2nc(n1)NS(=O)(=O)c1cccc(c1)C(=O)N(C)[C@H](CC(C)C)[C@H](c1ccc(C(C)(C)C)cn1)O2` [Compound 343] the same measures were “+++ (+++ is >60%)” and less than 1 µM.
With `Cc1cccc(C)c1-c1cc2nc(n1)NS(=O)(=O)c1cccc(c1)C(=O)N(Cc1ccc(N3CCC[C@H](O)C3)nc1)[C@H](CC(C)C)CO2` [Compound 962], for the setting “Table 7”, the “Ent. A Max Activity” value was “+++ (+++ is >60%)” and the EC50 is less than 1 µM.
For `CC[C@H](O)CNc1ccc(CN2C(=O)c3cccc(c3)S(=O)(=O)Nc3nc(cc(-c4c(C)cccc4C)n3)OC[C@H]2CC(C)C)cn1` [Compound 948] the same measures were “+++ (+++ is >60%)” and 1 to 3 µM.
